Source: PMC5870190, “A three-in-one-bullet for oesophageal cancer: replication fork collapse, spindle attachment failure and enhanced radiosensitivity generated by a ruthenium(II) metallo-intercalator” (Chemical Science, 2017)
Values belong to the compound of their own block, whether it stands above or below them.

Tests used:
[1] = test system: FLO-1 human oesophageal adenocarcinoma; experiment: MTT assay, FLO-1 cells; format: cell-based
Method: (§1) MTT assay. OE21, FLO-1 or hSAEC1-KT cells were seeded in 96 well plates at 20,000 cells/well (for 24 h treatment) or 10,000 cells/well (for 72 h treatment) and allowed to adhere for 24 h before treatment. OE33 cells were seeded in 48 well plates at 40,000 cells/well (24 h treatment) or 20,000 cells/well (72 h treatment). Cancer cell lines were treated with chemicals dissolved in RPMI media for consistency. After incubation, 0.5 mg/ml MTT (thiazolyl blue tetrazolium bromide) dissolved in serum-free medium was added for 60 minutes and the formazan product eluted using acidified isopropanol.
(§2) The absorbance at 540 nm was quantified by plate reader (reference wavelength 650 nm). The metabolic activity of the cell population was determined as a percentage of a negative (solvent) control. […]
(§3) For the determination of mutation induction, from the untreated and each treated condition, 2x10^5 cells were plated in 10 x 100 mm dishes in selective media (regular media

[2] = test system: OE21 human oesophageal squamous cell carcinoma; experiment: MTT assay, OE21 cells; format: cell-based; conditions: for IC50: MTT
Method: as §1, §2, §3

[3] = test system: OE33 human oesophageal adenocarcinoma; experiment: MTT assay, OE33 cells; format: cell-based
Method: as §1, §2, §3

[4] = test system: OE21 cells; experiment: Western blotting of DNA damage response (DDR) markers; format: cell-based, human; conditions: OE21, 24 h treatment
Method: (§4) phototoxic contribution to bio-activity. Doxorubicin (Sigma) was prepared in doubly-distilled water (10 mg/mL, 17.4 mM).
[Ru(phen)2(dppz)]2+ (2 mM) was prepared in doubly-distilled water. […]
Western blotting. Treated samples were washed with cold PBS and lysed in RIPA (radioimmunoprecipitation assay) buffer containing protease inhibitors (10 μg/mL leupeptin, 2 μg/mL pepstatin, 50 μg/mL antipain, 2 μg/mL aprotinin, 20 μg/mL chyprostatin, 2 μg/mL benzamidine, 1 mM phenylmethanesulfonyl fluoride) and phosphatase inhibitors (50 mM NaF, 1 mM Na3VO4 and 20 mM β-glycerophosphate). Protein content was determined by BCA assay. Aliquots of cell lysates (10-50 μg total protein) were prepared in standard Laemmli buffer, heated at 95 °C for 5 minutes and resolved by NuPAGE® 4–12% Bis-Tris gels and LDS-PAGE. Gels were transferred onto nitrocellulose membrane and probed with primary antibodies in 5% BSA (bovine serum albumin) solutions at the following dilutions: 1/1000 dilution for majority of Cell Signaling antibodies and γH2AX. 1/500 for anti-p-ATR and anti-cleaved caspase 3. 1/200 anti-Chk1. 1/5000-1/10,000 anti- α-tubulin or β-actin.
(§5) Reactions were visualised with a suitable secondary antibody conjugated with horseradish peroxidase (1/5000 dilution, Thermo). […]

[5] = cited from earlier work
[6] = test system: OE21 cells; experiment: Cell-cycle analysis by flow cytometry; format: cell-based, human; conditions: OE21, 7 μM, 24 h
Method: as §4
[Ru(phen)2(dppz)]2+ (2 mM) was prepared in doubly-distilled water.
Sub-cellular fractionation. OE21 or OE33 cells were treated in 12 well plates, washed with cold PBS (2x2 mls) and nuclear and cytosol fractions obtained using the Nuclei EZ Lysis kit (Sigma). Briefly, cells were washed with acidified PBS (pH 2.5) to remove the membrane-bound fraction and 0.4 ml EZ lysis buffer was added. Cells were detached by scraping, collected into eppendorfs, vortexed briefly and left for 5 minutes on ice. Samples were centrifuged (500g, 5 mins) and the supernatant (cytosol fraction) aspirated. The pellet (nuclear fraction) was re-suspended in 200 µl RIPA buffer. […] Ruthenium content was determined by ICP-MS analysis as described in a recent […]
DNA fibre assay. […] CldU- and IdU-labelled tracts were visualised using a Leica DMRB microscope with a DFC360FX camera and tract length measured by ImageJ software. […]
Western blotting. […] Protein content was determined by BCA assay. […]
AnnexinV staining. […] This was incubated for 15 mins at room temperature, 400 µl binding buffer added and analysed by flow cytometry (FL1 and FL3 channels for FITC and PI respectively). […]

[7] = test system: OE21 cells; experiment: DNA fibre assay (replication fork progression); format: cell-based, human
Method: DNA fibre assay. The DNA fibre assay was performed as described previously.5 Briefly, OE21 cells were labelled with 30 µM CldU for 30 mins and then 250 µM IdU for an additional 30 mins. Either Ru1 (21 µM) or dppz (7 µM) was added during the second (IdU) nucleotide step (30 mins). DNA replication was terminated using ice-cold PBS and cells lysed (200 mM Tris-HCl pH 7.4, 50 mM EDTA and 0.5% SDS). DNA fibres were spread onto glass slides, fixed with methanol:acetic acid (3:1) and denatured with 2.5 M HCl. After blocking with 2% BSA, fibres were stained with anti-rat and anti-mouse 5-bromo-2′- deoxyuridine (BrdU) that specifically recognise either CldU (Abcam, dilution 1:500) or IdU (BD Sciences, 1:100). Anti-rat Cy3 (Jackson Immuno Research, 1:300) and anti-mouse Alexa-488 (Molecular Probes, 1:300) were used as the respective secondary antibodies. CldU- and IdU-labelled tracts were visualised using a Leica DMRB microscope with a DFC360FX camera and tract length measured by ImageJ software. Statistical analysis was performed by GraphPad Prism software using an unpaired t-test.
Western blotting. Treated samples were washed with cold PBS and lysed in RIPA (radioimmunoprecipitation assay) buffer containing protease inhibitors (10 μg/mL leupeptin, 2 μg/mL pepstatin, 50 μg/mL antipain, 2 μg/mL aprotinin, 20 μg/mL chyprostatin, 2 μg/mL benzamidine, 1 mM phenylmethanesulfonyl fluoride) and phosphatase inhibitors (50 mM NaF, 1 mM […]
Bis-Tris gels and LDS-PAGE. Gels were transferred onto nitrocellulose membrane and probed with primary antibodies in 5% BSA (bovine serum albumin) solutions at the following dilutions: 1/1000 dilution for majority of Cell Signaling antibodies and γH2AX. 1/500 for anti-p-ATR and anti-cleaved caspase 3. 1/200 anti-Chk1. 1/5000-1/10,000 anti- α-tubulin or β-actin.
as §5

[8] = test system: hSAEC1-KT normal human small airway epithelial cells; experiment: MTT assay, hSAEC1-KT cells; format: cell-based
Method: as §1, §2, §3

[9] = test system: OE21, OE33 or FLO-1 cells; experiment: Clonogenic survival assay with IR, three oesophageal cancer cell lines; format: cell-based, human; conditions: Ru1 2 μM or sub-cytotoxic cisplatin (500 nM OE21 and OE33, 300 nM FLO-1), 24 h before IR; range over three cell lines
Method: (§6) Clonogenic survival assay. OE21, OE33 or FLO1 cells were treated with 2 µM Ru1 for 24 h before irradiation with 0-8 Gy using a 137Cs γ-irradiator (IBL637, CIS Bio Int.; dose rate = 0.809 Gy min−1). 1 h after irradiation, cells were detached using Trypsin and re-seeded in 6 well plates at a density of 300 – 20,000 cells/well in triplicate in an incrementally greater number of cells with increasing IR dose to ensure adequate colony formation. Cells were incubated for 7–14 days after re-seeding to allow colony formation before being fixed with 10% methanol, 10% acetic acid and stained with 0.4% methylene blue. OE33 cells required an additional formaldehyde fixation (4% in PBS, 5 mins) step before the addition of methylene blue solution or colony detachment occurred. Colonies containing 50 cells or greater were counted using a Gelcount instrument and accompanying software (Oxford Optronix). Plating efficiencies were determined for each treatment condition and normalised to an untreated control to provide the surviving fraction (S. F.). S.F. versus radiation dose curves were plotted in GraphPad Prism and fit using a second order polynomial function (R2 values > 0.99). Dose modifying factors (DMF) at a SF=0.1 were calculated using the equation: Dose modifying factor (DMF) = IR dose to give S.F. 0.1/IR dose plus compound to give S.F.0.1. […]

[10] = test system: FLO-1 cells; experiment: Clonogenic survival assay with IR, FLO-1; format: cell-based, human; conditions: Ru1 2 μM or Cis 300 nM for 24 h before IR
Method: as §6

[11] = test system: OE21 cells; experiment: Clonogenic survival assay with IR, OE21; format: cell-based, human; conditions: Ru1 2 μM or Cis 500 nM for 24 h before IR
Method: as §6

[12] = test system: OE33 cells; experiment: Clonogenic survival assay with IR, OE33; format: cell-based, human; conditions: Ru1 2 μM or Cis 500 nM for 24 h before IR
Method: as §6

Compound: [Ru(phen)2(dppz)]^2+
IC50 ([1]; FLO1, 24 h constant exposure): > 100 µM | IC50 ([1]; FLO1, 72 h constant exposure): 34 ± 5.7 µM | IC50 ([2]; OE21, 24 h constant exposure): > 100 µM | IC50 ([2]; OE21, 72 h constant exposure): > 100 µM | IC50 ([3]; OE33, 24 h constant exposure): > 100 µM | IC50 ([3]; OE33, 72 h constant exposure): > 100 µM | DDR activation (γH2AX immunoblotting) [4]: no evidence of DDR activation | log P [5]: –1.48

IC50 ([1]; Homo sapiens, FLO-1, Table S2, FLO1, 24 h constant incubation): 6.1 ± 1.9 µM | IC50 ([1]; Homo sapiens, FLO-1, Table S2, FLO1, 72 h constant incubation): 0.05 ± 0.02 µM | IC50 ([2]; Homo sapiens, Table S2, OE21, 24 h constant incubation): 4.2 ± 0.3 µM | IC50 ([2]; Homo sapiens, Table S2, OE21, 72 h constant incubation): 0.21 ± 0.07 µM | IC50 ([3]; Homo sapiens, Table S2, OE33, 24 h constant incubation): 8.1 ± 2.7 µM | IC50 ([3]; Homo sapiens, Table S2, OE33, 72 h constant incubation): 0.07 ± 0.03 µM
Compound: COc1cccc2c1C(=O)c1c(O)c3c(c(O)c1C2=O)C[C@@](O)(C(=O)CO)C[C@@H]3O[C@H]1C[C@H](N)[C@H](O)[C@H](C)O1 [DOX, doxorubicin]
reduction in potency towards OE21 cells compared to OE33 or FLO-1 cells ([2]; 72 h exposure): three-fold

IC50 ([1]; Homo sapiens, FLO-1, FLO1, 24 h constant exposure): 7.5 ± 0.8 µM | IC50 ([1]; Homo sapiens, FLO-1, FLO1, 72 h constant exposure): 1.9 ± 1.1 µM | IC50 ([2]; Homo sapiens, OE21, 24 h constant exposure): 6.5 ± 2.1 µM | IC50 ([2]; Homo sapiens, OE21, 72 h constant exposure): 3.3 ± 0.4 µM | IC50 ([3]; Homo sapiens, OE33, 24 h constant exposure): 6.6 ± 2 µM | IC50 ([3]; Homo sapiens, OE33, 72 h constant exposure): 5.7 ± 0.9 µM
Compound: c1ccc2nc3c4cccnc4c4ncccc4c3nc2c1 [dppz, dipyridophenazine]
cell-cycle response [6]: cells accumulated in G1 or early S phase | increase in completely stalled/terminated replication forks (CldU tract only) compared to mock-treated ([7]; Ru1 21 μM or dppz 7 μM during second (IdU) pulse, 30 min): three-fold | greater levels of stalled forks than Ru1 ([7]; dppz 7 μM vs Ru1 21 μM): two-fold | IC50 ([8]; Homo sapiens, Epithelial cell, 24 h constant exposure): > 10 µM | IC50 ([8]; Homo sapiens, Epithelial cell, 72 h constant exposure): > 10 µM

Compound: N.N.[Cl][Pt][Cl] [Cisplatin, cisplatin]
dose modification factor (DMF) at surviving fraction of 0.1 [9]: 1.05–1.44 | IC50 ([1]; FLO1, 24 h constant exposure): 26.5 ± 0.7 µM | IC50 ([1]; FLO1, 72 h constant exposure): 4.7 ± 0.7 µM | S.F. ([10]; FLO-1, IR 0 Gy): 0.929 | S.F. ([10]; FLO-1, IR 2 Gy): 0.340 | S.F. ([10]; FLO-1, IR 4 Gy): 0.080 | S.F. ([10]; FLO-1, IR 6 Gy): 0.007 | IC50 ([2]; OE21, 24 h constant exposure): 22.6 ± 3.6 µM | IC50 ([2]; OE21, 72 h constant exposure): 6.3 ± 0.6 µM | IC50 ([3]; OE33, 24 h constant exposure): 11 ± 1.4 µM | IC50 ([3]; OE33, 72 h constant exposure): 3.25 ± 1 µM | S.F. ([11]; OE21, IR 0 Gy): 1.000 | S.F. ([11]; OE21, IR 2 Gy): 0.587 | S.F. ([11]; OE21, IR 4 Gy): 0.320 | S.F. ([11]; OE21, IR 6 Gy): 0.159 | S.F. ([11]; OE21, IR 8 Gy): 0.049 | S.F. ([12]; OE33, IR 0 Gy): 0.993 | S.F. ([12]; OE33, IR 2 Gy): 0.280 | S.F. ([12]; OE33, IR 4 Gy): 0.077 | S.F. ([12]; OE33, IR 6 Gy): 0.022 | S.F. ([12]; OE33, IR 8 Gy): 0.005 | IC50 ([8]; 24 h constant exposure): 21.5 ± 5 µM | IC50 ([8]; 72 h constant exposure): 15.8 ± 2 µM
